Consider 23 compounds from PubChem BioAssay (NCI).

Among the test systems are NCI/ADR-RES ovarian; MDA-MB-231 breast; T-47D breast; MDA-N; XF 498 CNS; M19-MEL melanoma; RXF-631 renal.
Common to all, as to test: inhibition of tumour cell growth, NCI panel, 48 h

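Growth conditions: 96-well plates. Treatment: test compound, 48 hours, 5 concentrations. Analysis: linear interpolation between bracketing concentrations; unreached endpoints set to highest concentration. GI50 = concentration required for 50% inhibition of growth. Definition used: TGI = concentration required for complete inhibition of growth.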

In the case of `COc1cc(-c2nn(-c3ccc(NC(=O)c4ccc(Cl)c(C(F)(F)F)c4)cc3)cc2-c2ccncc2)ccc1Cl`, the GI50 is 3.63 µM in the assay with NCI/ADR-RES ovarian, 1.6 µM in the assay with MDA-MB-231 breast and 2.98 µM in the assay on T-47D breast. Also, the figures for the TGI in the assay on NCI/ADR-RES ovarian, in the assay on MDA-MB-231 breast and with T-47D breast were more than 100 µM, 6.09 µM and more than 100 µM, respectively.

For `Cn1cc(C2=C(c3cn(C)c4ncccc34)C(=O)NC2=O)c2ccccc21`, the GI50 in the assay with NCI/ADR-RES ovarian is 11.5 µM; in the assay with MDA-MB-231 breast it was 12.2 µM; with T-47D breast, 7.56 µM. In addition, the TGI with NCI/ADR-RES ovarian was more than 25 µM; with MDA-MB-231 breast, more than 25 µM; in the assay on T-47D breast, more than 23.5 µM.

Regarding `Cc1cc(I)cc(CN(C)CCCCN2CCCCC2)c1O`, the GI50 was 19.5 µM in the assay with NCI/ADR-RES ovarian, 16.3 µM in the assay on MDA-MB-231 breast and 16.1 µM in the assay on T-47D breast. The TGI was found to be 73.2 µM in the assay on NCI/ADR-RES ovarian, 43 µM with MDA-MB-231 breast and 49.3 µM with T-47D breast.

For the compound `Nc1ccccc1SC(C[N+](=O)[O-])c1ccc2c(c1)OCO2` (stereo not given), the TGI with NCI/ADR-RES ovarian stood at 73 µM; in the assay with MDA-MB-231 breast, 20 µM; in the assay with MDA-N, 4.63 µM; in the assay on T-47D breast, 25.8 µM.

`Cc1nc2ccccc2c(N)c1-c1cc(C)c2c(C)nc3ccccc3c2n1`: the GI50 with NCI/ADR-RES ovarian was 1.34 µM; with MDA-MB-231 breast, 0.298 µM; with T-47D breast it was 1.78 µM. The TGI in the assay with NCI/ADR-RES ovarian came to 3.15 µM; with MDA-MB-231 breast, 0.904 µM; in the assay on T-47D breast, 4.04 µM.

Regarding `CN(C)C(=N)c1ccccc1`, the TGI in the assay on XF 498 CNS and with M19-MEL melanoma was more than 100 µM each time.

`O=C(/C=C/C12c3ccccc3C(c3ccccc31)C1C(=O)NC(=O)C12)c1ccncc1` (stereo not given): the GI50 in the assay with NCI/ADR-RES ovarian was 2.31 µM; in the assay on MDA-MB-231 breast, 3.13 µM; in the assay on T-47D breast, 2.82 µM. Further, the results for the TGI in the assay on NCI/ADR-RES ovarian, in the assay with MDA-MB-231 breast and in the assay on T-47D breast were 6.71 µM, 12.7 µM and 12.9 µM, respectively.

As for `Cc1coc2c1CC1(C)C(CCC(O)C1C)C2` (stereo not given), the TGI in the assay on NCI/ADR-RES ovarian, in the assay with MDA-MB-231 breast, in the assay on MDA-N and with T-47D breast was more than 100 µM in each case.

With `COc1ccc(C(=O)Cn2c(C(=O)c3ccccc3)nc(-c3ccc(OC)cc3)c2-c2ccc(OC)cc2)cc1`, the GI50 was more than 100 µM in the assay on NCI/ADR-RES ovarian, 64.3 µM in the assay with MDA-MB-231 breast and more than 100 µM in the assay with T-47D breast. The TGI with NCI/ADR-RES ovarian, in the assay on MDA-MB-231 breast and in the assay with T-47D breast was more than 100 µM throughout.

`CC1=C(C(=O)Nc2ccc(Cl)c(Cl)c2)C(c2cccc(Oc3ccccc3)c2)NC(=S)N1` (stereo not given): the figures for the GI50 in the assay with NCI/ADR-RES ovarian, with MDA-MB-231 breast and in the assay with T-47D breast were 10.2 µM, 8.69 µM and 10.9 µM, respectively. In addition, the values for the TGI with NCI/ADR-RES ovarian, with MDA-MB-231 breast and in the assay with T-47D breast were 17.4 µM, 16.6 µM and 21.4 µM, respectively.

Take `O=C1CC(c2ccc3c(c2)OCO3)Nc2ccccc21` (stereo not given): the values for the GI50 with NCI/ADR-RES ovarian, in the assay with MDA-MB-231 breast and in the assay on T-47D breast were 11.8 µM, 8.06 µM and 5.23 µM, respectively. The TGI in the assay with NCI/ADR-RES ovarian amounted to 39.9 µM; in the assay on MDA-MB-231 breast, 36.5 µM; in the assay with T-47D breast, 73.9 µM.

As for `N#CC1C(C#N)C2(c3ccccc3)C(c3ccccc3)=NN(c3ccccc3)CC12` (stereo not given), the TGI with XF 498 CNS and with M19-MEL melanoma was more than 100 µM each time.

With `COc1cc2c(cc1OC)-c1c3cc(O)ccc3nn[n+]1CC2`, the TGI in the assay with XF 498 CNS and in the assay with M19-MEL melanoma was more than 100 µM in each case.

Turning to `NC(Cc1c[nH]c2c(O)cccc12)C(=O)O` (stereo not given), the GI50 in the assay with NCI/ADR-RES ovarian, with MDA-MB-231 breast and with T-47D breast was more than 100 µM in each case. For the same compound, the TGI with NCI/ADR-RES ovarian, in the assay with MDA-MB-231 breast and in the assay on T-47D breast was more than 100 µM each time.

As for `COC1=CC(c2ccc[nH]2)=N/C1=C\c1[nH]c(C)c(C(=O)OC(C)C)c1C`, the GI50 in the assay with NCI/ADR-RES ovarian is 0.0367 µM; in the assay on MDA-MB-231 breast, 0.0252 µM; in the assay with T-47D breast it was 0.0522 µM. The results for the TGI in the assay on NCI/ADR-RES ovarian, in the assay on MDA-MB-231 breast and in the assay with T-47D breast were 1.42 µM, 0.274 µM and 1.74 µM, respectively.

Regarding `Cn1cnc([N+](=O)[O-])c1Sc1nnc(-c2cccnc2)n1C`, the TGI in the assay with NCI/ADR-RES ovarian is more than 100 µM; in the assay with MDA-MB-231 breast, 39.4 µM; in the assay with MDA-N it was 43.3 µM; with XF 498 CNS, 44.8 µM; in the assay with T-47D breast, 32 µM; in the assay on M19-MEL melanoma it was 38.8 µM.

Turning to `O=C1/C(=C/c2ccccc2)CN(C(=O)C(Cl)(Cl)Cl)C/C1=C\c1ccccc1`, in the assay on M19-MEL melanoma, the TGI was determined as 2.68 µM.

With `COC1=CC(=O)c2nc(-c3ccncc3)[nH]c2C1=O`, the GI50 in the assay with NCI/ADR-RES ovarian, in the assay with MDA-MB-231 breast and in the assay on T-47D breast was more than 100 µM throughout. In addition, the TGI in the assay on NCI/ADR-RES ovarian, in the assay with MDA-MB-231 breast and with T-47D breast was more than 100 µM each time.

Take `O=C1C(Cl)=C(Nc2cccc(Cl)c2)C(=O)N1Cc1ccc(Cl)cc1Cl`: the GI50 in the assay on NCI/ADR-RES ovarian is 0.904 µM; in the assay on MDA-MB-231 breast, 0.176 µM; in the assay with T-47D breast, 1.72 µM. The results for the TGI with NCI/ADR-RES ovarian, in the assay with MDA-MB-231 breast and in the assay on T-47D breast were 25 µM, 12.9 µM and more than 41.8 µM, respectively.

For `CN1C(=O)C(C)(C)C2(SC(C)(C)C2(C)C)N(C)C1=S` (stereo not given), the TGI with M19-MEL melanoma was more than 100 µM.

Take `O=C(O)CCc1coc2ccc(O)cc12`: the TGI in the assay with XF 498 CNS and in the assay on M19-MEL melanoma was more than 100 µM each time.

In the case of `O=C(N/C(=C\c1ccc(/C=C(\NC(=O)c2ccccc2)c2nc3cc([N+](=O)[O-])ccc3[nH]2)cc1)c1nc2cc([N+](=O)[O-])ccc2[nH]1)c1ccccc1`, the TGI with M19-MEL melanoma and with RXF-631 renal was more than 100 µM throughout.

Regarding `CC1=C(C(=O)NCc2ccccc2)C(/C=C/c2ccccc2)C(C(=O)NCc2ccccc2)=C(C)N1`, the TGI in the assay with XF 498 CNS and with M19-MEL melanoma was more than 100 µM each time.
